“And” between values parts separate entries of the source, which are not always exact repeats. Equal entries are not always repeated. Where two headings read alike, the source gives them in different places.
Experiments:
Athe_2310 [1] = target: T1, Athe_2310 (Anaerocellum bescii, UniProt A0ABY1S743); test: DSC thermal shift of Athe_2310 with ɑ-glucan substrates; type: binding; details: 5 mM sugar, 50 mM HEPES, 300 mM NaCl pH 7.0; for Tm: Athe_2310 + sugar, 2.5 mg/mL protein; for ΔTm: Athe_2310, |Tm,holo − Tm,apo|
T1 sequence (A0ABY1S743 entry or part of it): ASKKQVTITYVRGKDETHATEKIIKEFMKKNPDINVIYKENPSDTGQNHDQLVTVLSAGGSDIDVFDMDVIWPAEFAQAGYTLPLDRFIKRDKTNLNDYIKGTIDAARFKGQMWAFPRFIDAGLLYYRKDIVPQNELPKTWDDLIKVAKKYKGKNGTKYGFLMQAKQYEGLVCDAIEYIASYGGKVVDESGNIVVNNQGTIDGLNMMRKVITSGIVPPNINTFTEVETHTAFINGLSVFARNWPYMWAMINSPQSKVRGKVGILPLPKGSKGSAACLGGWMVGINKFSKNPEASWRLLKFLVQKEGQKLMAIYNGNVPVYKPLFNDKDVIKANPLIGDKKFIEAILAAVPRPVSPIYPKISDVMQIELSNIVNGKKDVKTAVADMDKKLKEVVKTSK
Excerpt: (§1) In DSC, proteins are heated at a constant rate to induce thermal denaturation. This can be measured by an increase in the protein’s specific heat capacity Cp(T) as a function of temperature. The melting temperature Tm is defined as the temperature at which the protein attains its maximum heat capacity and becomes fully denatured ([46]). However, the presence of their cognate ligands can induce substrate-binding proteins to adopt a more thermally stable closed conformation, resulting in an increase in Tm ([47]). This ΔTm = |Tm,holo − Tm,apo| difference can be used to determine differential substrate specificity, as preferred ligands that are more tightly bound will yield larger ΔTm values. […] However, other short ɑ-glucans trehalose (ΔTm = 7.23 °C) and maltotriose (ΔTm = 6.63 °C) also yield substantial melting temperature differences. Melting temperature differences are subtler with longer oligosaccharides maltotetraose (ΔTm = 1.57 °C), maltopentaose (ΔTm = 0.95 °C), and maltoheptaose (ΔTm = 0.26 °C) (Fig. 4a). However, as binding of maltose to E. coli MBP is known to increase protein melting temperature by approximately 8 °C, depending on pH, it is unlikely binding is taking place between Athe_2310 and longer maltodextrins (G4–G7) due to their much smaller ΔTm values in comparison ([47], [48]).
(§2) DSC measurements using a MicroCal PEAQ-DSC (Malvern Panalytical) were performed on Athe_2310 and Athe_2574 in combination with a variety of ɑ-glucans: trehalose (G2), maltose (G2), maltotriose (G3), maltotetraose (G4), maltopentaose (G5), and maltoheptaose (G7). The scan rate was set to […], with a max temperature of 130 °C. Protein was mixed with each sugar, yielding final concentrations of 2.5 mg/mL of protein and 5 mM of sugar. A total of 50 mM HEPES, 300 mM NaCl, pH 7.0, was used as the reference buffer. The heat capacity Cp was plotted against temperature and then normalized by the respective run’s maximum Cp value ( Cp,max ). We defined the melting temperature Tm as the temperature corresponding to Cp,max=Cp(T=Tm) . The melting temperature difference ΔTm=|Tm,holo-Tm,apo| is defined as the absolute difference in melting temperature between the melting temperature of a protein-sugar mix and the same protein with no sugar present.

Athe_2574 [2] = target: T2, Athe_2574 (Anaerocellum bescii, UniProt A0ABY1S640); test: DSC thermal shift of Athe_2574 with ɑ-glucan substrates; type: binding; details: for Tm: Athe_2574 + sugar, 2.5 mg/mL protein; for Tm / ΔTm: 5 mM sugar, 50 mM HEPES, 300 mM NaCl pH 7.0; for ΔTm: |Tm,holo − Tm,apo|
T2 sequence (A0ABY1S640 entry or part of it): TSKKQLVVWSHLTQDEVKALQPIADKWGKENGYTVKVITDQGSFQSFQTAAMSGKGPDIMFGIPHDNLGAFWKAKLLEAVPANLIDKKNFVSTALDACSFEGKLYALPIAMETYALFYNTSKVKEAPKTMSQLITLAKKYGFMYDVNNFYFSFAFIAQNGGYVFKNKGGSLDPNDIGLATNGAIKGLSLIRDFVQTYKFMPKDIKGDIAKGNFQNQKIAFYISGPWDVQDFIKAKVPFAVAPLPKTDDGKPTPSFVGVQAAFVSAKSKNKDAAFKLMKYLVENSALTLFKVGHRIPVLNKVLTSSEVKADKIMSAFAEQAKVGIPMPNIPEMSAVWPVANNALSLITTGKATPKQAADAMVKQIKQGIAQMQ
Excerpt: as §1, §2

Athe_2310 [3] = target: T1, Athe_2310; test: ITC of Athe_2310 with ɑ-glucan substrates; type: binding; details: for Ka: Ka=1/Kd; for n (stoichiometry): single-site binding model
Method: Proteins were dialyzed into the following buffer: 50 mM HEPES, 300 mM NaCl, pH 7.0 via 10 kDa MWCO PES filter 20 mL Spin-X Concentrators (Corning). […] A standard titration experiment consisted of the protein sample at 50 µM and the sugar ligand at 500 µM. The stirring was set at 750 rpm. The 280 µL sample of protein was injected with a priming aliquot of 0.2 µL of sugar ligand, followed by 19 successive injections of 2.0 µL at 120 seconds intervals. Integrated heat effects were determined by non-linear regression using a single-site binding model (Microcal PEAQ-ITC Analysis). The fitted isotherms yield the binding dissociation constant and other thermodynamic parameters calculated using the differential form of the Gibbs Free Energy equation ΔGd=-RTln(Kd) . The slope of the binding isotherm at the equivalence point was used to determine the dissociation constant Kd .

Athe_2574 [4] = target: T2, Athe_2574; test: biochemical; type: binding; details: for TΔS / ΔG / ΔH / Kd / Ka / n (stoichiometry): ITC 25 °C; for Kd: 50 mM HEPES; for Ka: Ka=1/Kd; for n (stoichiometry): single-site binding model
Method: Proteins were dialyzed into the following buffer: 50 mM HEPES, 300 mM NaCl, pH 7.0 via 10 kDa MWCO PES filter 20 mL Spin-X Concentrators (Corning). Measurements were performed at 25 °C using a MicroCal PEAQ Isothermal Titration Calorimeter (Malvern Panalytical). A standard titration experiment consisted of the protein sample at 50 µM and the sugar ligand at 500 µM. The stirring was set at 750 rpm. The 280 µL sample of protein was injected with a priming aliquot of 0.2 µL of sugar ligand, followed by 19 successive injections of 2.0 µL at 120 seconds intervals. Integrated heat effects were determined by non-linear regression using a single-site binding model (Microcal PEAQ-ITC Analysis). The fitted isotherms yield the binding dissociation constant and other thermodynamic parameters calculated using the differential form of the Gibbs Free Energy equation ΔGd=-RTln(Kd) . The slope of the binding isotherm at the equivalence point was used to determine the dissociation constant Kd . The […] Ka is defined as Ka=1/Kd .

[5] = test system: Athe_2310_Mut1 (D69F G279F G278F); test: DSC screen of mutant Athe_2310_Mut1 with maltodextrins; type: binding, Anaerocellum bescii; details: Fig. S5, result in words
Excerpt: We constructed mutant variants Athe_2310_Mut1 (D69F G279F G278F) and Athe_2574_Mut1 (G253F V254F P61W N63F D64F M322A W332A) that each contain point substitutions on residues predicted to be critical for both hydrophobic and hydrophilic contacts. In other words, the mutation of these residues is predicted to confer energetic penalties sufficiently large to prevent substrate binding. […] Similarly, Athe_2574_Mut1, with seven-point mutations due to its greater number of subsites, can no longer recognize maltodextrin substrates of any length (Fig. S6).
as §2, with “The melting temperature difference ΔTm=|Tm,holo-Tm,apo| is defined as the absolute difference in melting temperature between the melting temperature of a protein-sugar mix and the same protein with no sugar present.” left out

E. coli MBP = test system: E. coli MBP; parameters: method as in PMID 9007986, doi:10.1007/s00723-020-01232-y; details: depending on pH; cited from earlier work
[6] = Athe_2310, ITC 25 °C, 50 mM HEPES, 300 mM NaCl pH 7.0, read-out: Kd
[7] = 300 mM NaCl pH 7.0, read-out: Kd

## OC[C@H]1O[C@H](O[C@H]2[C@H](O)[C@@H](O)[C@@H](O[C@H]3[C@H](O)[C@@H](O)C(O)O[C@@H]3CO)O[C@@H]2CO)[C@H](O)[C@@H](O)[C@@H]1O (stereo partly drawn) [MalG3, D-Maltotriose]
Athe_2310 [1]
  Tm: 108.42 °C
  ΔTm: 6.63 °C
Athe_2310 [1]; listed as Maltotriose
  Tm: 108.4 °C
Athe_2574 [2]
  Tm: 101.47 °C
Athe_2574 [2]; listed as Maltotriose
  Tm: 101.5 °C
Athe_2574 [2]; Athe_2574
  ΔTm: 8.72 °C
Athe_2310 [3]; Athe_2310, ITC 25 °C
  TΔS: -4.85 kcal/mol
  ΔG: -7.21 kcal/mol
  ΔH: -2.36 ± 0.38 kcal/mol
  Ka: 192000 M⁻¹
  n (stoichiometry): 0.79 ± 0.06
Athe_2310 [3]; [6]
  Kd: 5.21 ± 2.98 µM
Athe_2574 [4]
  TΔS: 20.4 kcal/mol
  ΔG: -4.48 kcal/mol
  ΔH: -24.80 ± 2410 kcal/mol
  Ka: 1900 M⁻¹
  n (stoichiometry): 1.57 ± 85.80
Athe_2574 [4]; [7]
  Kd: 523 µM
[5]
  binding to Athe_2310_Mut1: can no longer bind

## OC[C@H]1O[C@H](O[C@H]2[C@H](O)[C@@H](O)[C@@H](O[C@H]3[C@H](O)[C@@H](O)[C@@H](O[C@H]4[C@H](O)[C@@H](O)C(O)O[C@@H]4CO)O[C@@H]3CO)O[C@@H]2CO)[C@H](O)[C@@H](O)[C@@H]1O (stereo partly drawn) [MalG4, D-Maltotetraose]
Athe_2310 [1]
  Tm: 103.36 °C
Athe_2310 [1]; listed as Maltotetraose
  Tm: 103.4 °C
Athe_2574 [2]
  Tm: 104.26 °C
Athe_2574 [2]; listed as Maltotetraose
  Tm: 102.7 °C
Athe_2574 [4]
  TΔS: 0.664 kcal/mol
  ΔG: -9.24 kcal/mol
  ΔH: -9.90 ± 0.19 kcal/mol
  Ka: 5.848e+06 M⁻¹
  n (stoichiometry): 0.98 ± 0.01
Athe_2574 [4]; [7]
  Kd: 0.17 ± 0.04 µM

## OC[C@H]1O[C@H](O[C@H]2[C@H](O)[C@@H](O)[C@@H](O[C@H]3[C@H](O)[C@@H](O)[C@@H](O[C@H]4[C@H](O)[C@@H](O)[C@@H](O[C@H]5[C@H](O)[C@@H](O)C(O)O[C@@H]5CO)O[C@@H]4CO)O[C@@H]3CO)O[C@@H]2CO)[C@H](O)[C@@H](O)[C@@H]1O (stereo partly drawn) [MalG5, D-Maltopentaose]
Athe_2310 [1]
  Tm: 102.73 °C
Athe_2310 [1]; listed as Maltopentaose
  Tm: 102.7 °C
Athe_2574 [2]
  Tm: 104.93 °C
Athe_2574 [2]; listed as Maltopentaose
  Tm: 104.9 °C
Athe_2574 [4]
  TΔS: -3.03 kcal/mol
  ΔG: -9.56 kcal/mol
  ΔH: -6.52 ± 0.07 kcal/mol
  Ka: 9.901e+06 M⁻¹
  n (stoichiometry): 0.90 ± 0.00
Athe_2574 [4]; [7]
  Kd: 0.1 ± 0.01 µM

## OC[C@H]1O[C@H](O[C@H]2[C@H](O)[C@@H](O)[C@@H](O[C@H]3[C@H](O)[C@@H](O)[C@@H](O[C@H]4[C@H](O)[C@@H](O)[C@@H](O[C@H]5[C@H](O)[C@@H](O)[C@@H](O[C@H]6[C@H](O)[C@@H](O)[C@@H](O[C@H]7[C@H](O)[C@@H](O)C(O)O[C@@H]7CO)O[C@@H]6CO)O[C@@H]5CO)O[C@@H]4CO)O[C@@H]3CO)O[C@@H]2CO)[C@H](O)[C@@H](O)[C@@H]1O (stereo partly drawn) [MalG7, D-Maltoheptaose]
Athe_2310 [1]
  Tm: 102.06 °C
Athe_2310 [1]; listed as Maltoheptaose
  Tm: 102.1 °C
Athe_2574 [2]
  Tm: 105.04 °C
Athe_2574 [2]; listed as Maltoheptaose
  Tm: 105.0 °C
Athe_2574 [4]
  TΔS: -2.69 kcal/mol
  ΔG: -9.98 kcal/mol
  ΔH: -7.29 ± 0.04 kcal/mol
  Ka: 2.0492e+07 M⁻¹
  n (stoichiometry): 0.82 ± 0.00
Athe_2574 [4]; Kd, 300 mM NaCl pH 7.0
  Kd: 0.049 µM and 0.05 µM

## OC[C@H]1O[C@H](O[C@H]2[C@H](O)[C@@H](O)[C@H](O)O[C@@H]2CO)[C@H](O)[C@@H](O)[C@@H]1O [Maltose, D-Maltose Monohydrate]
Athe_2310 [1]
  Tm: 110.9 °C and 110.85 °C
Athe_2574 [2]
  Tm: 97.8 °C
Athe_2310 [3]
  Kd: 3.93 ± 0.78 µM
Athe_2310 [3]; Athe_2310, ITC 25 °C
  TΔS: -3.85 kcal/mol
  ΔG: -7.38 kcal/mol
  ΔH: -3.53 ± 0.18 kcal/mol
  Ka: 254000 M⁻¹
  n (stoichiometry): 0.76 ± 0.02
Athe_2574 [4]; result in words
  ITC enthalpy changes of binding / fit of Kd and n: too small to fit meaningful
[5]
  binding to Athe_2310_Mut1: can no longer bind
E. coli MBP
  increase of protein melting temperature on binding: approximately 8 °C

## OC[C@H]1O[C@H](O[C@H]2O[C@H](CO)[C@@H](O)[C@H](O)[C@H]2O)[C@H](O)[C@@H](O)[C@@H]1O [Trehalose, D-Trehalose Dihydrate]
Athe_2310 [1]
  Tm: 109.02 °C
  ΔTm: 7.23 °C
Athe_2574 [2]
  Tm: 92.8 °C and 92.69 °C
Athe_2574 [2]; Athe_2574, result in words
  binding to Athe_2574 judged from DSC melting profile: absence of binding
Athe_2574 [2]; Athe_2574
  ΔTm: 0.1 °C
Athe_2310 [3]; Athe_2310, ITC 25 °C
  TΔS: -4.45 kcal/mol
  ΔG: -7.63 kcal/mol
  ΔH: -3.18 ± 0.14 kcal/mol
  Ka: 386000 M⁻¹
  n (stoichiometry): 0.96 ± 0.02
Athe_2310 [3]; [6]
  Kd: 2.59 ± 0.5 µM

— article PMC12096829, “Maltodextrin transport in the extremely thermophilic, lignocellulose degrading bacterium Anaerocellum bescii (f. Caldicellulosiruptor bescii)” (Journal of Bacteriology, 2025)
